Laboratory results: ChEMBL document CHEMBL3243992, “Synthesis and carcinogenic activity of 5-fluoro-7-(oxygenated methyl)-12-methylvenz[a]anthracenes” (J Med Chem, 1978)

Tests used:
Rattus norvegicus [1] = assay: Carcinogenic activity in Sprague-Dawley rat assessed as tumor induction time at 0.1 umol, sc three times a week for 30 days; format: ADME, organism-based; details: in vivo, 720 h
Rattus norvegicus [2] = assay: Carcinogenic activity in Sprague-Dawley rat assessed as tumor formation at 0.1 umol, sc three times a week for 30 days observed up to 270 days; format: ADME, organism-based; details: in vivo

CC(=O)OCc1c2ccccc2c(C)c2c1cc(F)c1ccccc12
Time (Rattus norvegicus [1]): 205.7 days

Cc1c2ccccc2c(CO)c2cc(F)c3ccccc3c12
Activity (Rattus norvegicus [2]): Non-toxic

Cc1c2ccccc2c(C)c2c1cc(F)c1ccccc12
Time (Rattus norvegicus [1]): 231 days
